Assay results taken from paper PMC6364417, “Kinase inhibitor library screening identifies synergistic drug combinations effective in sensitive and resistant melanoma cells” (Journal of Experimental & Clinical Cancer Research : CR, 2019).
Structures can show the parent of a compound that is named as a salt.

Tests used:
Assay in all cases: Kinase inhibitor library screening, PrestoBlue cell viability, 1 or 10 μM, 72 h
[1] = tested on: IGR37-GP cells (Dabrafenib-resistant)
A375 cells (parental) = tested on: A375 cells (parental)
IGR37 cells (parental) = tested on: IGR37 cells (parental)
[2] = tested on: A375-GP cells (Dabrafenib-resistant)
[3] = tested on: 501Mel-GP cells (Dabrafenib-resistant); details: 72 h
[4] = tested on: 501Mel-XP cells (Vemurafenib-resistant); details: 72 h
[5] = tested on: IGR37-XP cells (Vemurafenib-resistant)
501Mel cells (parental) = details: 72 h
Summary of the method: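 Normalised to untreated controls, viability percentages came from PrestoBlue measured on a microplate reader following 72 h incubation with drug. Each line was assayed at least twice.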

[6] = tested on: A375-XP cells (Vemurafenib-resistant)
[7] = IGR37 Parental, 1μΜ, 72 h, in %
[8] = IGR37 Parental, 10μΜ, 72 h, in %

Row | Structure (SMILES) | cell viability (kinase inhibitor library screening) ([1]; IGR37 GP, 1μΜ, 72 h) [%] | cell viability (kinase inhibitor library screening) ([1]; IGR37 GP, 10μΜ, 72 h) [%] | cell viability (kinase inhibitor library screening) (A375 cells (parental); A375 Parental, 10μΜ, 72 h) [%] | cell viability (kinase inhibitor library screening) (IGR37 cells (parental); IGR37 Parental, 1μΜ, 72 h) [%] | cell viability (kinase inhibitor library screening) (IGR37 cells (parental); IGR37 Parental, 10μΜ, 72 h) [%] | cell viability (kinase inhibitor library screening) ([2]; A375 GP, 1μΜ, 72 h) [%] | cell viability (kinase inhibitor library screening) ([2]; A375 GP, 10μΜ, 72 h) [%] | cell viability (kinase inhibitor library screening) ([3]; 501Mel GP, 1μΜ) [%] | cell viability (kinase inhibitor library screening) ([3]; 501Mel GP, 10μΜ) [%] | cell viability (kinase inhibitor library screening) ([4]; 501Mel XP, 1μΜ) [%] | cell viability (kinase inhibitor library screening) ([4]; 501Mel XP, 10μΜ) [%] | cell viability (kinase inhibitor library screening) ([5]; IGR37 XP, 1μΜ, 72 h) [%] | cell viability (kinase inhibitor library screening) ([5]; IGR37 XP, 10μΜ, 72 h) [%] | cell viability (kinase inhibitor library screening) (501Mel cells (parental); 501Mel Parental, 1μΜ) [%] | cell viability (kinase inhibitor library screening) (501Mel cells (parental); 501Mel Parental, 10μΜ) [%] | cell viability (kinase inhibitor library screening) ([6]; A375 XP, 1μΜ, 72 h) [%] | cell viability (kinase inhibitor library screening) ([6]; A375 XP, 10μΜ, 72 h) [%] | cell viability (kinase inhibitor library screening) (A375 cells (parental); A375 Parental, 1μΜ, 72 h) [%] | also measured
1 | O=c1sn(-c2cccc3ccccc23)c(=O)n1Cc1ccccc1 [Tideglusib] |  |  |  |  |  |  |  |  |  |  |  |  |  |  |  |  |  |  | viability at 1 µM ([1]; Homo sapiens, IGR-37, 72 h, read-out: cell viability, IGR37 GP, 1μΜ): 94.6%; viability at 10 µM ([1]; Homo sapiens, IGR-37, 72 h, read-out: cell viability, IGR37 GP, 10μΜ): 95.9%; viability at 1 µM (A375 cells (parental); Homo sapiens, A-375, 72 h, read-out: cell viability, A375 Parental, 1μΜ): 95.4%; viability at 10 µM (A375 cells (parental); Homo sapiens, A-375, 72 h, read-out: cell viability, A375 Parental, 10μΜ): 97.4%; viability at 1 µM (IGR37 cells (parental); Homo sapiens, IGR-37, 72 h, read-out: cell viability, IGR37 Parental, 1μΜ): 103%; viability at 10 µM (IGR37 cells (parental); Homo sapiens, IGR-37, 72 h, read-out: cell viability, IGR37 Parental, 10μΜ): 99.7%; viability at 1 µM ([2]; Homo sapiens, A-375, 72 h, read-out: cell viability, A375 GP, 1μΜ): 98.4%; viability at 10 µM ([2]; Homo sapiens, A-375, 72 h, read-out: cell viability, A375 GP, 10μΜ): 97.5%; viability at 1 µM ([3]; Homo sapiens, read-out: cell viability, 501Mel GP, 1μΜ): 102%; viability at 10 µM ([3]; Homo sapiens, read-out: cell viability, 501Mel GP, 10μΜ): 91.6%; viability at 1 µM ([4]; Homo sapiens, read-out: cell viability, 501Mel XP, 1μΜ): 98.8%; viability at 10 µM ([4]; Homo sapiens, read-out: cell viability, 501Mel XP, 10μΜ): 90.4%; viability at 1 µM ([5]; Homo sapiens, IGR-37, 72 h, read-out: cell viability, IGR37 XP, 1μΜ): 96.4%; viability at 10 µM ([5]; Homo sapiens, IGR-37, 72 h, read-out: cell viability, IGR37 XP, 10μΜ): 74.1%; viability at 1 µM (501Mel cells (parental); Homo sapiens, read-out: cell viability, 501Mel Parental, 1μΜ): 110%; viability at 10 µM (501Mel cells (parental); Homo sapiens, read-out: cell viability, 501Mel Parental, 10μΜ): 105%; viability at 1 µM ([6]; Homo sapiens, A-375, 72 h, read-out: cell viability, A375 XP, 1μΜ): 105%; viability at 10 µM ([6]; Homo sapiens, A-375, 72 h, read-out: cell viability, A375 XP, 10μΜ): 108%
2 | CCn1c(-c2nonc2N)nc2c(C#CC(C)(C)O)ncc(OC[C@H]3CCCNC3)c21 [GSK690693] | 93.2 | 65.9 | 99.2 | 104.5 | 68.7 | 99.1 | 92.8 | 87.1 | 33.9 | 66.4 | 17.0 | 94.0 | 18.7 | 87.0 | 43.2 | 96.1 | 87.9 |  | 
3 | CNC(=O)c1cc(Oc2ccc(NC(=O)Nc3ccc(Cl)c(C(F)(F)F)c3)c(F)c2)ccn1 [Regorafenib (BAY 73-4506)] | 89.9 | 47.7 | 32.8 | 94.8 | 42.7 | 48.9 | 22.9 | 96.7 | 48.3 | 93.6 | 47.1 | 88.9 | 14.8 | 93.5 | 53.2 | 58.9 | 18.1 | 96.5 | 
4 | CO[C@@H](C(=O)N1Cc2n[nH]c(NC(=O)c3ccc(N4CCN(C)CC4)cc3)c2C1)c1ccccc1 [Danusertib (PHA-739358)] |  | 66.0 | 28.0 |  | 59.2 | 48.5 | 27.8 | 94.8 | 72.3 | 84.5 | 58.4 |  | 21.3 | 94.3 | 80.7 | 53.8 | 35.5 | 51.2 | 
5 | O=C(NCCCNc1nc(Nc2cccc(NC(=O)N3CCCC3)c2)ncc1I)c1cccs1 [BX-795] |  |  |  |  |  |  |  |  |  |  |  |  |  |  |  |  |  |  | Cell viability in kinase inhibitor library screening, IGR37 GP, 10μΜ ([1]; IGR37 GP, 10μΜ, 72 h): 15.1%; Cell viability in kinase inhibitor library screening, IGR37 GP, 1μΜ ([1]; IGR37 GP, 1μΜ, 72 h, in %): 85.8; Cell viability in kinase inhibitor library screening, A375 Parental, 10μΜ (A375 cells (parental); A375 Parental, 10μΜ, 72 h): 38.1; Cell viability in kinase inhibitor library screening, A375 Parental, 1μΜ (A375 cells (parental); A375 Parental, 1μΜ, 72 h): 87.7; Cell viability in kinase inhibitor library screening, IGR37 Parental, 1μΜ (IGR37 cells (parental); [7]): 97.9; Cell viability in kinase inhibitor library screening, IGR37 Parental, 10μΜ (IGR37 cells (parental); [8]): 56.4; Cell viability in kinase inhibitor library screening, A375 GP, 1μΜ ([2]; A375 GP, 1μΜ, 72 h): 86.6; Cell viability in kinase inhibitor library screening, A375 GP, 10μΜ ([2]; A375 GP, 10μΜ, 72 h): 43.6; Cell viability in kinase inhibitor library screening, 501Mel GP, 1μΜ ([3]; 501Mel GP, 1μΜ, in %): 97.1; Cell viability in kinase inhibitor library screening, 501Mel GP, 10μΜ ([3]; 501Mel GP, 10μΜ, in %): 64.9; Cell viability in kinase inhibitor library screening, 501Mel XP, 1μΜ ([4]; 501Mel XP, 1μΜ, in %): 89.4; Cell viability in kinase inhibitor library screening, 501Mel XP, 10μΜ ([4]; 501Mel XP, 10μΜ, in %): 39.9; Cell viability in kinase inhibitor library screening, IGR37 XP, 10μΜ ([5]; IGR37 XP, 10μΜ, 72 h): 7.6%; Cell viability in kinase inhibitor library screening, IGR37 XP, 1μΜ ([5]; IGR37 XP, 1μΜ, 72 h, in %): 93.9; Cell viability in kinase inhibitor library screening, 501Mel Parental, 1μΜ (501Mel cells (parental); 501Mel Parental, 1μΜ, in %): 92.8; Cell viability in kinase inhibitor library screening, 501Mel Parental, 10μΜ (501Mel cells (parental); 501Mel Parental, 10μΜ, in %): 82.7; Cell viability in kinase inhibitor library screening, A375 XP, 1μΜ ([6]; A375 XP, 1μΜ, 72 h): 93.4; Cell viability in kinase inhibitor library screening, A375 XP, 10μΜ ([6]; A375 XP, 10μΜ, 72 h): 48.3
6 | CN(c1ncccc1CNc1nc(Nc2ccc3c(c2)CC(=O)N3)ncc1C(F)(F)F)S(C)(=O)=O [PF-00562271] |  |  |  |  |  |  |  |  |  |  |  |  |  |  |  |  |  |  | cell viability, IGR37 GP, 10μΜ ([1]; IGR37 GP, 10μΜ, 72 h): 2.9%; cell viability, A375 Parental, 1μΜ (A375 cells (parental); A375 Parental, 1μΜ, 72 h, in %): 104.9; cell viability, A375 Parental, 10μΜ (A375 cells (parental); A375 Parental, 10μΜ, 72 h, in %): 4.0; cell viability, IGR37 Parental, 1μΜ (IGR37 cells (parental); [7]): 103.3; cell viability, IGR37 Parental, 10μΜ (IGR37 cells (parental); [8]): 3.6; cell viability, A375 GP, 1μΜ ([2]; A375 GP, 1μΜ, 72 h, in %): 92.2; cell viability, A375 GP, 10μΜ ([2]; A375 GP, 10μΜ, 72 h, in %): 4.9; cell viability, 501Mel GP, 1μΜ ([3]; 501Mel GP, 1μΜ, in %): 98.0; cell viability, 501Mel GP, 10μΜ ([3]; 501Mel GP, 10μΜ, in %): 0.9; cell viability, 501Mel XP, 1μΜ ([4]; 501Mel XP, 1μΜ, in %): 94.1; cell viability, 501Mel XP, 10μΜ ([4]; 501Mel XP, 10μΜ, in %): 0.458; cell viability, IGR37 XP, 10μΜ ([5]; IGR37 XP, 10μΜ, 72 h): 1.9%; cell viability, IGR37 XP, 1μΜ ([5]; IGR37 XP, 1μΜ, 72 h, in %): 82.7; cell viability, 501Mel Parental, 10μΜ (501Mel cells (parental); 501Mel Parental, 10μΜ, in %): 1.5; cell viability, A375 XP, 1μΜ ([6]; A375 XP, 1μΜ, 72 h, in %): 107.5; cell viability, A375 XP, 10μΜ ([6]; A375 XP, 10μΜ, 72 h, in %): 3.4
7 | CN1CC[C@H](c2c(O)cc(O)c3c(=O)cc(-c4ccccc4Cl)oc23)[C@H](O)C1 [Flavopiridol hydrochloride] | 4.5 | 3.8 | 7.2 | 2.2 | 2.2 | 4.6 | 3.0 | 0.662 | 0.4 | 0.473 | 0.3 | 2.9 | 3.2 | 1.1 | 1.3 | 5.6 | 5.1 | 7.0 | 
8 | Cc1cn(-c2cc(NC(=O)c3ccc(C)c(Nc4nccc(-c5cccnc5)n4)c3)cc(C(F)(F)F)c2)cn1 [Nilotinib (AMN-107)] | 98.8 | 35.4 | 66.2 | 95.3 | 73.7 | 96.3 | 48.3 | 99.9 | 74.5 | 84.0 | 54.3 | 100.2 | 1.4 | 89.8 | 71.1 | 87.0 | 57.9 | 102.9 | 
